Read-outs that look alike come from different tables or passages of the source. No end group written: not given here. A value given as a limit tells only on which side of the number the result lay.

Series [1] deals with Candida glabrata ATCC2001. Put plainly: C. glabrata adhesion and biofilm formation on 96-well polystyrene plates (XTT). Type of series: cell-based. The settings on record: 96-well polystyrene plates in vitro. From the text: The specificity of interferor peptide F9 was investigated for C. albicans as compared to a distant Candida spp., i.e. Candida glabrata ATCC2001, for biofilm formation inhibition in vitro. The beta-aggregation sequence of the F9 peptide ([…] (SEQ ID NO: 71)) is not present in C. glabrata—the most closely related sequence in C. glabrata is […] (SEQ ID NO: 73). […] We tested the effect of F9 against C. glabrata adhesion and biofilm formation on 96-well polystyrene plates in vitro.
(In general: Tetrazolium assays rely on reduction of a dye to a coloured formazan, in cell work by metabolically active cells.)

The nature of series [2]: Preliminary in vivo toxicity in mice. The settings on record: Swiss mice. Here is the method: Further, three groups of 6-weeks old female Swiss mice were injected with increasing C30 doses over a period of 1 week. C30 was dissolved in physiological water and 1 injection per day was given. In the first 3 days injections in the tail vein were given (150 μl per injection) and during the remaining 2 days IP injections (300 μl per injection). The primary dose started from 3 mg/kg and each day the dose was increased gradually. The control group received the same volume of saline. The highest dose analyzed for IV injections was 50 mg/kg and for the IP injections 100 mg/kg. […] Organs of treated and control mice were subjected to further histological analysis. After all 5 injections were given, blood was taken by retro-orbital puncture and analyzed.

Series [3] has as its system negative regulator of genetic competence CIpC/mecB. As to the kind of experiment: SOSPA shotgun proteomic analysis of soluble / insoluble fractions. In kind it is cell-based, S.aureus and B.cereus. The settings on record: C30 treated vs untreated cells. From the text:
The aggregation technology is based on the assumption that short amino acid stretches, with a high propensity of aggregation (e.g. assessed by the TANGO score) and that are derived from a target protein, can induce aggregation of that protein. This hypothesis has been confirmed by a shotgun proteomic analysis of the insoluble fraction. If we assume that our aggregator peptides work through specific interaction with its target and causes its aggregation, it is expected that the target enters the insoluble fraction. For this reason we've decided to split the lysate into 2 fractions: insoluble and soluble and compare these with untreated cell fractions. Proteins present in both treated (TC30) and untreated (NT) insoluble fractions were assumed to present a background of non-specific naturally non-soluble proteins. Additionally we've examined soluble fractions of both treated and untreated bacteria and as expected the protein of interest was present only in the untreated fraction. This means that the following criteria for target search were used:
1) potential aggregation targets are proteins obtained from the list of proteins in the Insoluble fraction of C30 treated cells minus proteins in the Insoluble fraction of non-treated cells […]

For series [4], the system named is S. epidermidis strain ATCC 12228 and S. aureus ATCC. Type of series: cell-based, Staphylococcus. On the procedure:
Time-kill curves were obtained to study the kinetics of bactericidal activity. Compounds C30, Hit50 and C29 (for sequences see above) were tested against S. epidermidis strain ATCC 12228 and S. aureus ATCC at the compound's MIC and two times MIC value. It was shown that compound C30 decreased the viable counts by 100% within 5 min, while Hit50 reduced the viable counts by ^˜3 log units after the same incubation period, both at a concentration that equaled its MIC value (see FIG. 11A and FIG. 11B). […] For example the time needed to decrease the number of CFU/ml one-fold for C29 was 60 minutes (at the minimum inhibitory concentration), and only 10 minutes for 2×MIC.

Series [5] deals with Listeria monocytogenes ATCC 11994. Put plainly: MIC, microbroth dilution. The settings on record: planktonic, 18 hours. On the technique in general: Dilution methods test growth across graded concentrations, often in twofold steps.
Procedure: (§1) Bacteria were grown in a shaking incubator at 37° C. and 160rpm in 50 ml BHI , using individual colonies retrieved from a fresh overnight TSA-sheep blood plate. The cultures were grown to a density of approximately 1×10^8cells/ml and then diluted to 5×10^5 cells/ml in CAMHB (Mc Farland 0.5). Each well contained 100p.I (50p.I of peptide containing MHB plus 50 μl inoculum). The final cell density was 1×10^5 to 5×10^5/ml. After addition of the cell suspension, plates were incubated at 37° C. for 18 to 24 hours. The optical density at 590 nm (OD590) of each well was measured after 5 seconds of shaking the plate using Perkin Elmer spectrophotometer (1420 Multilabel Counter Vicotr 3). […] Each well, where no growth was observed, was also plated on TSA-sheep blood agar plates, incubated at 37° C. overnight and visually inspected.
Another series has as its system Ps. aeruginosa ATCC27853. As to the kind of experiment: MIC, microbroth dilution. The settings on record: planktonic, 18 hours.
The test system of the next series is B. cereus. The settings on record: planktonic, 18 hours.
The subject of series [6] is human embryonic kidney cells (HEK293T cell line). Conditions: concentrations lower than 100 μg/ml; HEK293T.
Source text: Alamar blue assay allowed monitoring of the total percentage of cell growth recovery in time in the presence of peptides.
A further series deals with E. coli. Conditions: E. coli ATCC25922; planktonic bacteria; read-out after 18 hours of growth.
Series [7] concerns S. aureus.
Procedure: as §1
(§2) A microbroth dilution method was used with twofold serial dilutions in CAMHB (according to EMEA guidelines) was used for screening of peptide activity, with concentrations ranging from 0.3 μg/mIto 200 μg/ml.
In the next series the test system is VRE strains. As to the kind of experiment: MIC, microbroth dilution. The settings on record: planktonic, 18 hours.
Series [8] deals with S. aureus. In kind it is cell-based, Staphylococcus aureus.

Procedure for B. cereus: as §1, §2
Procedure for E. coli: as §1, §2
Procedure for Ps. aeruginosa ATCC27853: as §1
Procedure for VRE strains: as §1

As to RKLLFNLGSRNGIVIVATTR [F9], the “C. glabrata adhesion and biofilm development” value in series [1] is “did not interfere with C. glabrata adhesion and biofilm development”.
As for RILLGLIRRGSRILLGLIRR [C30], the side effects entry in [2] (IP injection, highest dose of 100 mg/kg) is “developed a subcutaneous lesion bump”. In addition, the “mortality and side effects” value in series [2] (IV injections, increasing doses from 3 mg/kg, highest dose 50 mg/kg) was “no signs of mortality nor any other visible side effects”. For the same sequence, in [2] (after all 5 injections, retro-orbital puncture), the blood analysis result is “No abnormalities were found in the blood”. For the same sequence, the “distribution of the target protein between soluble and insoluble fraction” value in series [3] was “shifted from soluble into insoluble fraction upon peptide treatment”. For the same sequence, in series [4], the “time needed to kill Staphylococci” value was in the range of 5 to 10 min. The “decrease of viable counts” value in series [4] (Staphylococcus epidermidis and Staphylococcus aureus, 5 min, 1 ×MIC) came to 100%. Further, the MIC entry is “Listeria monocytogenes ATCC 11994: 1.5 μg/ml” in series [5]; “Ps. aeruginosa ATCC27853: >100 μg/ml” against Ps. aeruginosa ATCC27853; “Bacillus cereus 1: 6 μg/ml” in the series with B. cereus (Bacillus cereus 1); “Bacillus cereus 2: 6 μg/ml” with B. cereus (Bacillus cereus 2); “E. coli ATCC25922: 100 μg/ml” in the series on E. coli; 6 µg/mL in the series on S. aureus [7]. Moreover, the MIC entry was “MRSA 115: 6 μg/ml” in the series with S. aureus [7] (MRSA 115, planktonic, 18 hours); “MRSA 165: 3 μg/ml” with S. aureus [7] (MRSA 165, planktonic, 18 hours); “MRSA 204: 6 μg/ml” in the series on S. aureus [7] (MRSA 204, planktonic, 18 hours); “MRSA 274: 3 μg/ml” with S. aureus [7] (MRSA 274, planktonic, 18 hours); “MRSA 351: 3 μg/ml” in the series with S. aureus [7] (MRSA 351, planktonic, 18 hours); “MRSA 418: 6 μg/ml” against S. aureus [7] (MRSA 418, planktonic, 18 hours). In addition, the MIC entry against S. aureus [7] (MRSA 651, planktonic, 18 hours) is “MRSA 651: 3 μg/ml”; in the series with S. aureus [7] (S. aureus ATCC29213, planktonic, 18 hours) it was “S. aureus ATCC29213: 3 μg/ml”; against VRE strains (VRE 8), “VRE 8: 3 μg/ml”; against VRE strains (VRE 11), “VRE 11: 1.5 μg/ml”; with VRE strains (VRE 12) it was “VRE 12: 12.5 μg/ml”; in the series with VRE strains (VRE 40) it was “VRE 40: 3 μg/ml”. In addition, the MIC entry in the series on VRE strains (VRE 54) was “VRE 54: 3 μg/ml”; in the series on VRE strains (VRE 60), “VRE 60: 3 μg/ml”; against VRE strains (VRE 70) it was “VRE 70: 1.5 μg/ml”. Also, the “viability of mammalian cells” value in [6] was “viability of mammalian cells is not significantly affected”. Also, the “MIC in presence of 50% FBS” value in the series with S. aureus [7] is 50 µg/mL. Also, the “maximal increase of the MIC” value in the series on MRSA strain 326 (31 days, concentration in medium adjusted to MIC of previous day) is no more than 4 fold. Besides, the “MIC on the last day of the experiment” value with MRSA strain 326 (day 31) is listed as 12,5 μg/ml. Besides, in the series with S. aureus [8] (S. aureus ATCC, broth microdilution, 4 duplicates), the “onset of resistance compared with common antibiotics” value was “much slower onset of resistance than Ampicillin”. Moreover, in the series on S. aureus [8] (S. aureus clinical strain MRSA 204, passaged at half the MIC over 15 days), the “fold elevation of the MIC” value was determined as 2 fold.

What is called MIC is the least concentration at which growth counts as inhibited.

The record behind these values is US20220033448A1, “METHODS FOR AGGREGATION OF PROTEINS” (priority 2011, published 2022).
